# Experimental data taken from ChEMBL document CHEMBL1201862, “PubChem BioAssay data set” (2004).
# Active and inactive are the calls of the source. Where a SMILES comes first, the peptide text is derived from it. The star is where a group is joined. Boc = CC(C)(C)OC(=O)*; OtBu = CC(C)(C)O*
# Columns and labels:
# [1] = molecular target: T1, Heat shock factor protein 1 (Mus musculus, UniProt P38532); assay: HSF1 potentiators in luciferase reporter cells, confirmation, cell-based, NIH3T3, luminescence, dose retest (AID 435004); assay type: functional;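 note: stress induced by proteasome inhibitor MG132 added 30 min after compound; luciferase reporter driven by HSF1 response element in NIH3T3 cells; actives raise luminescence as potentiators of the MG132 stress response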
# T1 sequence (P38532 whole entry): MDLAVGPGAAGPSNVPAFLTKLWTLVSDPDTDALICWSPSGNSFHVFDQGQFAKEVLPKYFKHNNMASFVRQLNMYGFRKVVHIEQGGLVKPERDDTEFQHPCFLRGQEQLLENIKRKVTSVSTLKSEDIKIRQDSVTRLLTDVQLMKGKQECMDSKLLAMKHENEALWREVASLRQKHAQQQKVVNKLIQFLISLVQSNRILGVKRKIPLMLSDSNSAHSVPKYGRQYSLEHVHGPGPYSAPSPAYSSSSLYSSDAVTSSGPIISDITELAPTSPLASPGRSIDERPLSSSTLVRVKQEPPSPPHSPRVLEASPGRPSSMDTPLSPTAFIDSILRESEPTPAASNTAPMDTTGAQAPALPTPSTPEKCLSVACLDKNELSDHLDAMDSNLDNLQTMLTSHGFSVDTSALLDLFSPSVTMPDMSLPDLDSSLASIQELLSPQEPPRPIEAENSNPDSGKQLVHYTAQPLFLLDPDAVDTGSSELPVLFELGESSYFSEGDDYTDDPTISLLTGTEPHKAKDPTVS
# Cytochrome P450 1A2 = molecular target: T2, Cytochrome P450 1A2 (Homo sapiens, UniProt P05177);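 note: PubChem cytochrome P450 panel assay, CYP1A2 panel member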
# T2 sequence (P05177 whole entry): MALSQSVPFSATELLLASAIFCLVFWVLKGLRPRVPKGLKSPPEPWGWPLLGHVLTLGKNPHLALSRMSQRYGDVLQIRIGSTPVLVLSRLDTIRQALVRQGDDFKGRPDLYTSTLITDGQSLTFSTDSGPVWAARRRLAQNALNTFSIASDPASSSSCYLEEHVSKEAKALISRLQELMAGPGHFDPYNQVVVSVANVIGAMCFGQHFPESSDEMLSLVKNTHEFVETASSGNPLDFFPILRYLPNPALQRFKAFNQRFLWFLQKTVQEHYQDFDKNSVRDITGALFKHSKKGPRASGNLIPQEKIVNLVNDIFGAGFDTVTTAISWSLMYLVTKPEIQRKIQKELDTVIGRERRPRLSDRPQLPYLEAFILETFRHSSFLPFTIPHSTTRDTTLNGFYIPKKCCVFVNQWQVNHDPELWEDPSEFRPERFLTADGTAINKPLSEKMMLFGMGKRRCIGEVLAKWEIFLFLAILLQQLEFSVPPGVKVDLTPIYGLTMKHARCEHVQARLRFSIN
# [2] = molecular target: T3, Polyadenylate-binding protein 1 (Homo sapiens, UniProt P11940); assay: PABP1 MLLE–PAM2 interaction inhibitors, dose response, miRNA deadenylation inhibitor project, biochemical, fluorescence polarization, Cy5-PAM2 peptide, secondary (AID 602260); assay type: functional; conditions: read-out: IC50_Mean
# [3] = molecular target: T3, Polyadenylate-binding protein 1; assay: PABP1 MLLE–PAM2 binding inhibitor potency, dose response, biochemical, fluorescence polarization, FITC-PAM2 peptide (AID 602259); assay type: functional; conditions: read-out: IC50_Mean
# [4] = molecular target: T4, Rac GTPase-activating protein 1 (Homo sapiens, UniProt Q9H0H5); assay: MgcRacGAP GTPase-activating activity inhibitors, confirmation, biochemical, ADP Hunter fluorescence, primary and confirmatory (AID 624330); assay type: functional
# T4 sequence (Q9H0H5 whole entry): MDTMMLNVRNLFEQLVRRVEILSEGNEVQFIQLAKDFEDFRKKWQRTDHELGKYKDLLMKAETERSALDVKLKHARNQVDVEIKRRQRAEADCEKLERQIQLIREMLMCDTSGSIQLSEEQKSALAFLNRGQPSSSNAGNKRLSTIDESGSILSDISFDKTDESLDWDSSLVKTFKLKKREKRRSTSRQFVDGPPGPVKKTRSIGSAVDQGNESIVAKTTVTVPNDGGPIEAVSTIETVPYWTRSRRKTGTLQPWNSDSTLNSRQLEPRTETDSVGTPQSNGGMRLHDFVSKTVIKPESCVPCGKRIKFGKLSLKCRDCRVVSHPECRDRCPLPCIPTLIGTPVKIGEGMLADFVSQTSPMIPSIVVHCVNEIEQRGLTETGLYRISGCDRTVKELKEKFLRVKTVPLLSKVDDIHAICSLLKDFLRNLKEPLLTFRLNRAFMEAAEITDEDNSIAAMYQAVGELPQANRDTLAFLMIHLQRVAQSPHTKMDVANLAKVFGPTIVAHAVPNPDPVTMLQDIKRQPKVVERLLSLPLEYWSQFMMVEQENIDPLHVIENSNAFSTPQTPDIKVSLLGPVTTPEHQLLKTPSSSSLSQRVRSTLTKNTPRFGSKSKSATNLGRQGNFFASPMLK
# Cytochrome P450 3A4 = Cytochrome P450 3A4 (Homo sapiens, UniProt P08684);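 note: CYP3A4 tested as one member of a cytochrome P450 panel screen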
# Cytochrome P450 2C19 = Cytochrome P450 2C19 (Homo sapiens, UniProt P33261); assay: Cytochrome panel assay with activity outcomes. Panel member name: p450-cyp2c19 Compounds with AC50 equal or less than 10 uM are considered active; assay type: functional; conditions: read-out: AC50
# Streptokinase A = molecular target: T5, Streptokinase A (Streptococcus pyogenes serotype M1, UniProt P10520); assay: S. pyogenes streptokinase expression inhibitors, potency, dose response, plasminogen activation absorbance, OD405 (AID 1914); assay type: functional, Streptococcus pyogenes M1 GAS;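 note: secreted streptokinase activity via plasminogen activation per viability signal from cell pellet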
# T5 sequence (P10520 whole entry): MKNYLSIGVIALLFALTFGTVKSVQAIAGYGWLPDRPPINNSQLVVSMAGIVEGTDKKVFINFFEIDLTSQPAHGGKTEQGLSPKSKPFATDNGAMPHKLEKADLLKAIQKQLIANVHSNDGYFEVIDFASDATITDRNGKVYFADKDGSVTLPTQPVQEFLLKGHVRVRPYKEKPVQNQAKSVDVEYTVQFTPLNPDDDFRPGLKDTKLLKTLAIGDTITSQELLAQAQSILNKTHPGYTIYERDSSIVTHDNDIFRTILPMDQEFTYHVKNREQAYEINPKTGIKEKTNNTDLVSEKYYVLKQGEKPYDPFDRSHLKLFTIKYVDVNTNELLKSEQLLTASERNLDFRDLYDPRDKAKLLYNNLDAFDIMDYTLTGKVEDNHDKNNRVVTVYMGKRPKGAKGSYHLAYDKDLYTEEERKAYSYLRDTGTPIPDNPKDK
# Streptococcus = assay: Group A Streptococcus viability loss, dose response, counter-screen for streptokinase expression inhibitor project, luminescence, BacTiterGlo (AID 1915); assay type: functional, organism-based;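 note: potency for reduction of bacterial viability or growth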
# [5] = test system: Streptococcus sp. 'group A'; assay: growth inhibition of control SK(-) GAS strain, dose response, counter-screen for streptokinase expression inhibitor project, luminescence, kanamycin, BacTiterGlo, confirmation (AID 1900); assay type: functional, organism-based
# INS1 = assay: beta cell apoptosis inhibitors, cytokine rescue, dose response, luminescence, retest (AID 449756); assay type: functional, cell-based; conditions: Rattus norvegicus;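 note: cell death triggered by IL-1 beta plus TNF-alpha plus IFN-gamma mixture; protective hits raise ATP signal compared with cytokine alone wells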
# [6] = Luminescence Cell-Based Dose Retest to Confirm Inhibitors of Cancer Stem Cells. [Related pubchem assays (depositor defined):AID2717, AID2721]; assay type: functional; conditions: Homo sapiens
# Chain of Cytochrome P450 2C19 (P33261 whole entry): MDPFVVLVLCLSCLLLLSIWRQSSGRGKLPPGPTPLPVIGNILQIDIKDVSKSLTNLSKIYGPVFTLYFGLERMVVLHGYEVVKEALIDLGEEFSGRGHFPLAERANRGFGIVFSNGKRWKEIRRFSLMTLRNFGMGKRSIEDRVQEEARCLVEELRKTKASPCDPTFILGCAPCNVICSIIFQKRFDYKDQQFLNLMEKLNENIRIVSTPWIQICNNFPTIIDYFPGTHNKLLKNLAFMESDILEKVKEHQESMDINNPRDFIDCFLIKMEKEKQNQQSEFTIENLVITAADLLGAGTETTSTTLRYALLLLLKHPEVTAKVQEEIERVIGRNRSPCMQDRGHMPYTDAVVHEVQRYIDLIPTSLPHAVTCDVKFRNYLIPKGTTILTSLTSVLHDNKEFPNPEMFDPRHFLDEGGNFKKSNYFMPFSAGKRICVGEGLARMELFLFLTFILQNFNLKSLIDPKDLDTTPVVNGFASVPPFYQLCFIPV
# Chain of Cytochrome P450 3A4 (P08684 whole entry): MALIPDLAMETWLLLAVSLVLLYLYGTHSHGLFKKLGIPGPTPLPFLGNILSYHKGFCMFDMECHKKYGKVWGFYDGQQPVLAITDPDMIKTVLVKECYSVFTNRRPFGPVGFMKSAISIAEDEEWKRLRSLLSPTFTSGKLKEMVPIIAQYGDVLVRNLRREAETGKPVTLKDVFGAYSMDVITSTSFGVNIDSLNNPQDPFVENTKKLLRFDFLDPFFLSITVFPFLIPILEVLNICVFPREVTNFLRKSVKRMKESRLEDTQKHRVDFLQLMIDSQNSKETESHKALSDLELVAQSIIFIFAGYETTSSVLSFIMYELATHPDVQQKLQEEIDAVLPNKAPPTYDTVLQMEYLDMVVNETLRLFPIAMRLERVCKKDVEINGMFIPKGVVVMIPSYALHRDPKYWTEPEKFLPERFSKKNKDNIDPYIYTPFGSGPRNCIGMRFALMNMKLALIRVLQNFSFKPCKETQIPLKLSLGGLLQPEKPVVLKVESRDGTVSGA
# T3 sequence (P11940 whole entry): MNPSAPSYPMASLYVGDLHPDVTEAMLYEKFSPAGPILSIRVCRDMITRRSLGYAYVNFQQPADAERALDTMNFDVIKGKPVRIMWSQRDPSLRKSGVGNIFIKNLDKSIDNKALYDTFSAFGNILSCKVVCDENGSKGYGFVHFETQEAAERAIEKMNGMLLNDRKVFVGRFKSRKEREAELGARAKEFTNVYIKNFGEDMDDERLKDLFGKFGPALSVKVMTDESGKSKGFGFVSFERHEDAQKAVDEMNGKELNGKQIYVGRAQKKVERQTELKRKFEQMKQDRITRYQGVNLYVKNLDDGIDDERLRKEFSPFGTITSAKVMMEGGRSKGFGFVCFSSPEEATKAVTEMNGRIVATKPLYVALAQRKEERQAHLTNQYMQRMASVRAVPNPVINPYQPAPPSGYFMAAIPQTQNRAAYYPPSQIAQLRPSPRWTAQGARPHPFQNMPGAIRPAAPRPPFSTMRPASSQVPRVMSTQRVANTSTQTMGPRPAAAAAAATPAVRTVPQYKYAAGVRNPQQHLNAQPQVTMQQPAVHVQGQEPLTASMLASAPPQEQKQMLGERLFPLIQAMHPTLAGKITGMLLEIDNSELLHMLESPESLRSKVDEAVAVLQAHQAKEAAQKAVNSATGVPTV
smiles,measurement,setting,value
COC(=O)C(Cc1ccc(O)cc1)NC(=O)C(CC(=O)OC(C)(C)C)NC(=O)OC(C)(C)C (stereo not given) (Boc-Asp(OtBu)-Tyr-OMe; configuration not given here),EC50,[1],> 260 µM (inactive)
Cc1ccc(-c2ccc(/C=N/NC(=S)Nc3ccccc3)o2)cc1[N+](=O)[O-],AC50,Cytochrome P450 1A2,3.55 µM (inconclusive)
same,IC50,[2],> 66 µM (inactive)
same,IC50,[3],> 66 µM (inactive)
CCN(CC)C(=O)Oc1ccc(Br)cc1C(=O)Nc1ccc(F)cc1F,EC50,[1],> 260 µM (inactive)
Cn1c(=O)[nH]c(=O)c2c1nc(S)n2Cc1ccccc1,IC50,[4],26.9 µM (active)
Cn1c(SCc2ccccc2C#N)nc2ccccc2c1=O,EC50,[1],> 260 µM (inactive)
CC1SC(c2ccc(Cl)cc2)NC1=O (stereo not given),EC50,[1],> 260 µM (inactive)
Cc1nc(SCC(=O)c2ccccc2)c(C#N)c(-c2ccco2)c1C(=O)NCc1ccco1,EC50,[1],99.7 µM (active)
CN(C(=O)CCN1C(=O)/C(=C/c2ccccc2F)SC1=S)C1CCS(=O)(=O)C1 (stereo not given),IC50,[2],> 66 µM (inactive)
same,IC50,[3],> 66 µM (inactive)
O=C(Cc1ccc([N+](=O)[O-])cc1)N1N=C(C2CC2)CC1(O)C(F)(F)F (stereo not given),EC50,[1],> 260 µM (inactive)
COc1ccc(CCNC(=O)c2sc(=S)n(C)c2N)cc1,IC50,[2],> 66 µM (inactive)
same,IC50,[3],> 66 µM (inactive)
Cc1noc(C)c1-c1cc(Nc2ccc(F)cc2)ncn1,AC50,Cytochrome P450 3A4,20 µM (inconclusive)
same,AC50,Cytochrome P450 2C19,39.8 µM (inconclusive)
COc1cc(-c2nnn(CC#N)n2)ccc1OCc1ccccc1,EC50,[1],90.9 µM (active)
Nc1cc(Br)c(N)c(Br)c1,IC50,[4],13.5 µM (active)
CCc1ccc(NC(=O)CSC2=C(C#N)C(c3ccc4c(c3)OCO4)CC(=O)N2)cc1 (stereo not given),EC50,[1],> 260 µM (inactive)
CN(C)c1ccc(NC(=O)COC(=O)c2ccc3c(c2)OCO3)cc1,IC50,[4],63.3 µM (active)
O=C(CCNC(=O)c1ccccc1)OCN1C(=O)c2ccccc2C1=O,AC50,Cytochrome P450 3A4,15.8 µM (inconclusive)
same,AC50,Cytochrome P450 2C19,39.8 µM (inconclusive)
O=C(CCN1CCC2CCC(C2)C1)c1ccccc1 (stereo not given),IC50,[2],> 66 µM (inactive)
same,IC50,[3],> 66 µM (inactive)
COc1ccc(-n2c(=O)c(-c3cccs3)nc3cnc(N4CCN(C)CC4)nc32)cc1,AC50,Cytochrome P450 1A2,2.51 µM (inconclusive)
same,AC50,Cytochrome P450 3A4,25.1 µM (inconclusive)
Cc1cc(Cl)ccc1N=C(S)NC(C)(C)C,IC50,[2],> 66 µM (inactive)
same,IC50,[3],> 66 µM (inactive)
CCNc1ncc2nc(C)c(=O)n(Cc3ccc(F)cc3)c2n1,AC50,Cytochrome P450 3A4,7.94 µM (inconclusive)
same,AC50,Cytochrome P450 2C19,6.31 µM (inconclusive)
COc1ccccc1NC(=O)Cc1csc(N=C(S)Nc2ccccc2)n1,IC50,[2],> 66 µM (inactive)
same,IC50,[3],> 66 µM (inactive)
C/C(=N\NC(=S)Nc1cccc(C)c1)c1cc2ccccc2o1,EC50,Streptokinase A,> 150 µM (not active)
same,EC50,Streptococcus,> 150 µM (not active)
same,EC50,[5],3.44 µM (active)
same,IC50,[2],> 66 µM (inactive)
same,IC50,[3],> 66 µM (inactive)
Cc1ccc2cc(C=C(C#N)C#N)c(Cl)nc2c1,IC50,[2],44.8 µM (inactive)
same,IC50,[3],28 µM (inactive)
CCOc1cc(NC(=O)c2ccc(OC)cc2)c(OCC)cc1N=C(S)Nc1ccccc1,AC50,Cytochrome P450 1A2,7.08 µM (inconclusive)
same,AC50,Cytochrome P450 3A4,14.1 µM (inconclusive)
same,AC50,Cytochrome P450 2C19,2.51 µM (inconclusive)
CC(C)[C@H](N[C@@H](C)c1ccccc1)c1c(O)ccc2ccccc12,IC50,[4],16.8 µM (active)
COc1cc(CN2CCC(C(=O)N3CCCC(C)C3)CC2)cc(Br)c1O (stereo not given),IC50,[4],191 µM (active)
Cc1ccc(OC(=O)c2ccc(C)c(C)c2)cn1,EC50,[1],> 260 µM (inactive)
Cc1ccc(-c2cc(C(F)(F)F)c(C#N)c(SCC(=O)O)n2)cc1,EC50,[1],> 260 µM (inconclusive)
O=C(NC1CCCC1)c1cc(COc2ccc3ncccc3c2)on1,AC50,INS1,3.29 µM (active)
Cc1nnc(N/N=C/c2cc([N+](=O)[O-])c(N3CCC(C)CC3)cc2N2CCC(C)CC2)n1N,AC50,INS1,2.92 µM (active)
O=C(CNS(=O)(=O)c1ccc(Br)s1)NCc1ccccc1,EC50,[1],> 260 µM (inactive)
O=C(O)CCCC(=O)Nc1ccc(C(=O)NCc2cccnc2)cc1,AC50,INS1,2.39 µM (active)
N#CC(CO)(Cc1ccc(OC(F)F)cc1)c1nc2ccccc2[nH]1 (stereo not given),EC50,[1],> 260 µM (inactive)
Cc1ccc(C(C)C)c(OCC(O)CN2CCc3ccccc3C2)c1 (stereo not given),AC50,INS1,7.17 µM (active)
CC1CC(=O)N(c2ccc(Br)cc2)C(=O)C1,AC50,INS1,> 260 µM (inactive)
same,EC50,[1],> 260 µM (inactive)
Cc1nc(N)sc1-c1ccccc1,IC50,[4],71.9 µM (active)
O=[N+]([O-])c1ccc(N2CCCCCC2)c([N+](=O)[O-])c1,EC50,[1],> 260 µM (inactive)
COc1ccc2cc(C(c3nnnn3C3CCCC3)N3CCc4ccccc4C3)c(O)nc2c1 (stereo not given),IC50,[2],> 66 µM (inactive)
same,IC50,[3],> 66 µM (inactive)
O=c1c(-c2ccc(F)cc2)nc2cnc(Nc3ccccc3)nc2n1C[C@H]1CCCO1,AC50,Cytochrome P450 1A2,2 µM (inconclusive)
same,AC50,Cytochrome P450 3A4,12.6 µM (inconclusive)
CCOCCCN=C(S)N1CCN(Cc2ccc3c(c2)OCO3)CC1,IC50,[4],152 µM (active)
Cc1cc(C)nc(SCNC(=O)c2ccccc2)n1,IC50,[2],> 66 µM (inactive)
same,IC50,[3],> 66 µM (inactive)
Cc1cccc(NC2=C/C(=N/S(=O)(=O)c3cccs3)c3ccccc3C2=O)c1,AC50,[6],0.835 µM (active)
same,AC50,INS1,0.803 µM (active)
